Data reported in ChEMBL document CHEMBL3046569 (Med Chem Res, 2011).

Tests used:
[1] = Therapeutic index, ratio of IC50 for human H9 cells to EC50 for HIV1; type: cell-based; details: for pTI: h9
[2] = system: Human immunodeficiency virus 1; test: Antiviral activity against Human immunodeficiency virus 1 infected human H9 cells assessed as inhibition of viral replication; type: functional, organism-based; details: Human immunodeficiency virus 1, H9; read-out: pEC50 (converted)

| Structure (SMILES) | pTI [1] | EC50 [2] [µM] | selectivity ratio ([1]; H9 cells, read-out: Ratio IC50/EC50) |
| --- | --- | --- | --- |
| CC(C)[C@@H]1CC[C@]2(C(=O)OCc3ccccc3)CC[C@]3(C)[C@H](CC[C@@H]4[C@@]5(C)CC[C@H](OC(=O)CC(C)(C)C(=O)O)C(C)(C)[C@@H]5CC[C@]43C)[C@@H]12 | -1.748 | 0.23 |  |
| C=C(C)[C@@H]1CC[C@]2(CO)CC[C@]3(C)[C@H](CC[C@@H]4[C@@]5(C)CC[C@H](O)C(C)(C)[C@@H]5CC[C@]43C)[C@@H]12 [BETULIN] | -0.279 |  | 1.9 |
| C=C(C)[C@@H]1CC[C@]2(COC(C)=O)CC[C@]3(C)[C@H](CC[C@@H]4[C@@]5(C)CC[C@H](OC(C)=O)C(C)(C)[C@@H]5CC[C@]43C)[C@@H]12 [BETULIN DIACETATE] | 0 | 190 |  |
| C=C(C)[C@@H]1CC[C@]2(COC(=O)CC(C)(C)CC(=O)O)CC[C@]3(C)[C@H](CC[C@@H]4[C@@]5(C)CC[C@H](O)C(C)(C)[C@@H]5CC[C@]43C)[C@@H]12 | -0.892 | 3.6 |  |
| C=C(C)[C@@H]1CC[C@]2(C(=O)O)CC[C@]3(C)[C@H](CC[C@@H]4[C@@]5(C)CC[C@H](OC(=O)CCCC(=O)O)C(C)(C)[C@@H]5CC[C@]43C)[C@@H]12 | -2.465 | 0.044 |  |
| C=C(C)[C@@H]1CC[C@]2(C(=O)NCCCCCCCC(=O)N[C@@H](CC(C)C)[C@@H](O)CC(=O)O)CC[C@]3(C)[C@H](CC[C@@H]4[C@@]5(C)CC[C@H](O)C(C)(C)[C@@H]5CC[C@]43C)[C@@H]12 | -1.544 | 0.33 |  |
| C=C(C)[C@@H]1CC[C@]2(COC(=O)CC3(CC(=O)O)CCCC3)CC[C@]3(C)[C@H](CC[C@@H]4[C@@]5(C)CC[C@H](O)C(C)(C)[C@@H]5CC[C@]43C)[C@@H]12 | -0.785 | 2.1 |  |
| C=C(C)[C@@H]1CC[C@]2(CN)CC[C@]3(C)[C@H](CC[C@@H]4[C@@]5(C)CC[C@H](N)C(C)(C)[C@@H]5CC[C@]43C)[C@@H]12 | -0.708 | 1.07 |  |
| C=C(CO)[C@@H]1CC[C@]2(CO)CC[C@]3(C)[C@H](CC[C@@H]4[C@@]5(C)CC[C@H](O)C(C)(C)[C@@H]5CC[C@]43C)[C@@H]12 [30-HYDROXY-BETULIN] | -0.447 | 50.8 |  |
| CC(C)[C@@H]1CC[C@]2(COC(=O)CCCC(=O)O)CC[C@]3(C)[C@H](CC[C@@H]4[C@@]5(C)CC[C@H](OC(=O)CCCC(=O)O)C(C)(C)[C@@H]5CC[C@]43C)[C@@H]12 | -1.23 | 1.6 |  |
| CC(C)[C@@H]1CC[C@]2(C(=O)OC(=O)OCN(C)C)CC[C@]3(C)[C@H](CC[C@@H]4[C@@]5(C)CC[C@H](O)C(C)(C)[C@@H]5CC[C@]43C)[C@@H]12 | 0 | 6.59 |  |
| C=C(C)[C@@H]1CC[C@]2(COC(=O)CC(C)(CC)CC(=O)O)CC[C@]3(C)[C@H](CC[C@@H]4[C@@]5(C)CC[C@H](OC(=O)CC(C)(CC)CC(=O)O)C(C)(C)[C@@H]5CC[C@]43C)[C@@H]12 (stereo partly specified) | -3.541 | 0.0053 |  |
| CC(C)[C@@H]1CC[C@]2(C(=O)OC(=O)N3CCOCC3)CC[C@]3(C)[C@H](CC[C@@H]4[C@@]5(C)CC[C@H](O)C(C)(C)[C@@H]5CC[C@]43C)[C@@H]12 | -0.114 | 26 |  |
| CC(CC(=O)O)CC(=O)OC[C@]12CC[C@@H](C(C)C)[C@@H]1[C@H]1CC[C@@H]3[C@@]4(C)CC[C@H](OC(=O)CC(C)CC(=O)O)C(C)(C)[C@@H]4CC[C@@]3(C)[C@]1(C)CC2 (stereo partly specified) | -2.512 | 0.059 |  |
| CC(C)[C@@H]1CC[C@]2(C(=O)O)CC[C@]3(C)[C@H](CC[C@@H]4[C@@]5(C)CC[C@H](OC(=O)CCCC(=O)O)C(C)(C)[C@@H]5CC[C@]43C)[C@@H]12 | -0.875 | 1.8 |  |
| C=C(C)[C@@H]1CC[C@]2(/C=N/O)CC[C@]3(C)[C@H](CC[C@@H]4[C@@]5(C)CC/C(=N\O)C(C)(C)[C@@H]5CC[C@]43C)[C@@H]12 [BETULIN-3,28-DIOXIME] | -0.708 | 1.07 |  |
| C=C(C)[C@@H]1CC[C@]2(NOC(=O)CCC(C)(C)CC(=O)O)CC[C@]3(C)[C@H](CC[C@@H]4[C@@]5(C)CC/C(=N\OC(=O)CCC(C)(C)CC(=O)O)C(C)(C)[C@@H]5CC[C@]43C)[C@@H]12 | -0.532 | 4.57 |  |
| CC(C)[C@@H]1CC[C@]2(COC(=O)CC3(CC(=O)O)CCCC3)CC[C@]3(C)[C@H](CC[C@@H]4[C@@]5(C)CC[C@H](OC(=O)CC6(CC(=O)O)CCCC6)C(C)(C)[C@@H]5CC[C@]43C)[C@@H]12 | -1.568 | 0.579 |  |
| CC(C)[C@@H]1CC[C@]2(C(=O)O)CC[C@]3(C)[C@H](CC[C@@H]4[C@@]5(C)CC[C@H](OC(=O)C(C)(C)CC(=O)O)C(C)(C)[C@@H]5CC[C@]43C)[C@@H]12 | -1.14 | 0.56 |  |
| C=C(C)[C@@H]1CC[C@]2(COC(=O)CC(C)(C)CC(=O)O)CC[C@]3(C)[C@H](CC[C@@H]4[C@@]5(C)CCC(=O)C(C)(C)[C@@H]5CC[C@]43C)[C@@H]12 | -0.462 | 10 |  |

| Structure (SMILES) | pTI [1] | EC50 [2] [µM] | selectivity ratio ([1]; H9 cells, read-out: Ratio IC50/EC50) |
| --- | --- | --- | --- |
| C=C(C)[C@@H]1CC[C@]2(C(=O)O)CC[C@]3(C)[C@H](CC[C@@H]4[C@@]5(C)CC[C@H](OC(=O)CC(C)(C)CC(=O)O)C(C)(C)[C@@H]5CC[C@]43C)[C@@H]12 |  | 0.0023 |  |
| CC(C)[C@@H]1CC[C@]2(C(=O)OC(=O)OCN(C)C)CC[C@]3(C)[C@H](CC[C@@H]4[C@@]5(C)CCC(=O)C(C)(C)[C@@H]5CC[C@]43C)[C@@H]12 | -0.544 | 3.8 |  |
| C=C(C)[C@@H]1CC[C@]2(COC(=O)CC(C)CC(=O)O)CC[C@]3(C)[C@H](CC[C@@H]4[C@@]5(C)CC[C@H](OC(=O)CC(C)CC(=O)O)C(C)(C)[C@@H]5CC[C@]43C)[C@@H]12 (stereo partly specified) | -3.725 | 0.0039 |  |
| C=C(C)[C@@H]1CC[C@]2(C(=O)O)CC[C@]3(C)[C@H](CC[C@@H]4[C@@]5(C)CC[C@H](O)C(C)(C)[C@@H]5CC[C@]43C)[C@@H]12 (stereo in doubt; 1) [BETULINIC ACID] | -0.969 |  |  |
| C=C(C)[C@@H]1CC[C@]2(COC(=O)CC(C)(C)CC(=O)O)CC[C@]3(C)[C@H](CC[C@@H]4[C@@]5(C)CC[C@H](OC(=O)CC(C)(C)CC(=O)O)C(C)(C)[C@@H]5CC[C@]43C)[C@@H]12 | -4.333 | 0.000659 |  |
| CC(C)[C@@H]1CC[C@]2(C(=O)O)CC[C@]3(C)[C@H](CC[C@@H]4[C@@]5(C)CC[C@H](OC(=O)COCC(=O)O)C(C)(C)[C@@H]5CC[C@]43C)[C@@H]12 | -3.37 | 0.0056 |  |
| C=C(C)[C@@H]1CC[C@]2(CO)CC[C@]3(C)[C@H](CC[C@@H]4[C@@]5(C)CC[C@@H](O)C(C)(C)[C@@H]5CC[C@]43C)[C@@H]12 [3-EPI-BETULIN] | -0.532 | 3.62 |  |
| C=C(C)[C@@H]1CC[C@]2(C(=O)O)CC[C@]3(C)[C@H](CC[C@@H]4[C@@]5(C)CC[C@H](OC(=O)C(C)(C)CC(=O)O)C(C)(C)[C@@H]5CC[C@]43C)[C@@H]12 | -0.826 | 2.7 |  |
| C=C(COC(=O)CC(C)(C)CC(=O)O)[C@@H]1CC[C@]2(COC(=O)CC(C)(C)CC(=O)O)CC[C@]3(C)[C@H](CC[C@@H]4[C@@]5(C)CC[C@H](OC(=O)CC(C)(C)CC(=O)O)C(C)(C)[C@@H]5CC[C@]43C)[C@@H]12 | -2.59 | 0.045 |  |
| CC(C)[C@@H]1CC[C@]2(C(=O)O)CC[C@]3(C)[C@H](CC[C@@H]4[C@@]5(C)CC[C@H](OC(=O)C67CCC(C)(C(=O)O6)C7(C)C)C(C)(C)[C@@H]5CC[C@]43C)[C@@H]12 (stereo partly specified) | -0.301 | 0.5 |  |
| C=C(C)[C@@H]1CC[C@]2(COC(=O)CC3(CC(=O)O)CCCC3)CC[C@]3(C)[C@H](CC[C@@H]4[C@@]5(C)CC[C@H](OC(=O)CC6(CC(=O)O)CCCC6)C(C)(C)[C@@H]5CC[C@]43C)[C@@H]12 | -2.427 | 0.0769 |  |
| CC(C)[C@@H]1CC[C@]2(C(=O)O)CC[C@]3(C)[C@H](CC[C@@H]4[C@@]5(C)CC[C@H](OC(=O)CC(C)(C)CC(=O)O)C(C)(C)[C@@H]5CC[C@]43C)[C@@H]12 | -3.007 | 0.0057 |  |
| CC(C)[C@@H]1CC[C@]2(C(=O)OCc3ccccc3)CC[C@]3(C)[C@H](CC[C@@H]4[C@@]5(C)CC[C@H](O)C(C)(C)[C@@H]5CC[C@]43C)[C@@H]12 | -0.255 | 100 |  |
| CC(C)CC(=O)O[C@H]1CC[C@]2(C)[C@H]3CC[C@@H]4[C@H]5[C@H](C(C)C)CC[C@]5(C(=O)O)CC[C@@]4(C)[C@]3(C)CC[C@H]2C1(C)C | -1.748 | 1.5 |  |
| C=C(COC(C)=O)[C@@H]1CC[C@]2(COC(C)=O)CC[C@]3(C)[C@H](CC[C@@H]4[C@@]5(C)CC[C@H](OC(C)=O)C(C)(C)[C@@H]5CC[C@]43C)[C@@H]12 | -0.398 | 10.2 |  |
| C=C(C)[C@@H]1CC[C@]2(COC(=O)CCCC(=O)O)CC[C@]3(C)[C@H](CC[C@@H]4[C@@]5(C)CC[C@H](OC(=O)CCCC(=O)O)C(C)(C)[C@@H]5CC[C@]43C)[C@@H]12 | -0.833 | 3.8 |  |
| CC(C)[C@@H]1CC[C@]2(COC(=O)CC(C)(C)CC(=O)O)CC[C@]3(C)[C@H](CC[C@@H]4[C@@]5(C)CC[C@H](OC(=O)CC(C)(C)CC(=O)O)C(C)(C)[C@@H]5CC[C@]43C)[C@@H]12 | -3.353 | 0.0047 |  |
| C=C(C)[C@@H]1CC[C@]2(C(=O)O)CC[C@]3(C)[C@H](CC[C@@H]4[C@@]5(C)CC[C@H](OC(=O)COCC(=O)O)C(C)(C)[C@@H]5CC[C@]43C)[C@@H]12 | -3.069 | 0.01 |  |
| C=C(C)[C@@H]1CC[C@]2(C(=O)OC(=O)N3CCOCC3)CC[C@]3(C)[C@H](CC[C@@H]4[C@@]5(C)CC[C@H](O)C(C)(C)[C@@H]5CC[C@]43C)[C@@H]12 | -0.556 | 3.2 |  |
